Laboratory results from PubChem BioAssay (NCI).
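Results reflect a 48-hour exposure of cells in 96-well plates to compound at five concentrations. The concentration for full growth arrest is given as TGI.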

Legend:
Test in all cases: NCI anticancer screen, dose series, 48 h
786-0 renal = system: 786-0 renal
A498 renal = system: A498 renal
A549 NSCLC = system: A549 NSCLC
ACHN renal = system: ACHN renal
BT-549 breast = system: BT-549 breast
CAKI-1 renal = system: CAKI-1 renal
CCRF-CEM leukemia = system: CCRF-CEM leukemia
COLO 205 colon = system: COLO 205 colon
DU-145 prostate = system: DU-145 prostate
EKVX NSCLC = system: EKVX NSCLC
HCC-2998 colon = system: HCC-2998 colon
HCT-116 colon = system: HCT-116 colon
HCT-15 colon = system: HCT-15 colon
HL-60(TB) leukemia = system: HL-60(TB) leukemia
HOP-62 NSCLC = system: HOP-62 NSCLC
HOP-92 NSCLC = system: HOP-92 NSCLC
HS 578T breast = system: HS 578T breast
HT29 colon = system: HT29 colon
IGROV1 ovarian = system: IGROV1 ovarian
K-562 leukemia = system: K-562 leukemia
KM12 colon = system: KM12 colon
M14 melanoma = system: M14 melanoma
MALME-3M melanoma = system: MALME-3M melanoma
MCF7 breast = system: MCF7 breast
MDA-MB-231 breast = system: MDA-MB-231 breast
MDA-MB-435 = system: MDA-MB-435
MDA-N = system: MDA-N
MOLT-4 leukemia = system: MOLT-4 leukemia
NCI-H226 lung = system: NCI-H226 lung
NCI-H23 lung = system: NCI-H23 lung
NCI-H460 lung = system: NCI-H460 lung
NCI-H522 lung = system: NCI-H522 lung
NCI/ADR-RES ovarian = system: NCI/ADR-RES ovarian
OVCAR-3 ovarian = system: OVCAR-3 ovarian
OVCAR-4 ovarian = system: OVCAR-4 ovarian
OVCAR-5 ovarian = system: OVCAR-5 ovarian
OVCAR-8 ovarian = system: OVCAR-8 ovarian
PC-3 prostate = system: PC-3 prostate
RPMI-8226 leukemia = system: RPMI-8226 leukemia
RXF 393 renal = system: RXF 393 renal
SF-268 CNS = system: SF-268 CNS
SF-295 CNS = system: SF-295 CNS
SF-539 CNS = system: SF-539 CNS
SK-MEL-2 melanoma = system: SK-MEL-2 melanoma
SK-MEL-28 melanoma = system: SK-MEL-28 melanoma
SK-MEL-5 melanoma = system: SK-MEL-5 melanoma
SK-OV-3 ovarian = system: SK-OV-3 ovarian
SN12C renal = system: SN12C renal
SNB-19 CNS = system: SNB-19 CNS
SNB-75 CNS = system: SNB-75 CNS
SR leukemia = system: SR leukemia
SW-620 colon = system: SW-620 colon
T-47D breast = system: T-47D breast
TK-10 renal = system: TK-10 renal
U251 CNS = system: U251 CNS
UACC-257 melanoma = system: UACC-257 melanoma
UACC-62 melanoma = system: UACC-62 melanoma
UO-31 renal = system: UO-31 renal
LOX IMVI melanoma = system: LOX IMVI melanoma

NS(=O)(=O)c1ccc(NCc2cnc3ccccc3n2)cc1
TGI (786-0 renal): > 100 µM | TGI (A498 renal): > 100 µM | TGI (A549 NSCLC): > 100 µM | TGI (ACHN renal): > 100 µM | TGI (BT-549 breast): > 100 µM | TGI (CAKI-1 renal): > 100 µM | TGI (CCRF-CEM leukemia): > 100 µM | TGI (COLO 205 colon): > 100 µM | TGI (DU-145 prostate): > 100 µM | TGI (EKVX NSCLC): > 100 µM | TGI (HCC-2998 colon): > 100 µM | TGI (HCT-116 colon): > 100 µM | TGI (HCT-15 colon): > 100 µM | TGI (HL-60(TB) leukemia): > 100 µM | TGI (HOP-62 NSCLC): > 100 µM | TGI (HOP-92 NSCLC): > 100 µM | TGI (HS 578T breast): > 100 µM | TGI (HT29 colon): > 100 µM | TGI (IGROV1 ovarian): > 100 µM | TGI (K-562 leukemia): > 100 µM | TGI (KM12 colon): > 100 µM | TGI (M14 melanoma): > 100 µM | TGI (MALME-3M melanoma): > 100 µM | TGI (MCF7 breast): > 100 µM | TGI (MDA-MB-231 breast): > 100 µM | TGI (MDA-MB-435): > 100 µM | TGI (MDA-N): > 100 µM | TGI (MOLT-4 leukemia): > 100 µM | TGI (NCI-H226 lung): > 100 µM | TGI (NCI-H23 lung): > 100 µM | TGI (NCI-H460 lung): > 100 µM | TGI (NCI-H522 lung): > 100 µM | TGI (NCI/ADR-RES ovarian): > 100 µM | TGI (OVCAR-3 ovarian): > 100 µM | TGI (OVCAR-4 ovarian): > 100 µM | TGI (OVCAR-5 ovarian): > 100 µM | TGI (OVCAR-8 ovarian): > 100 µM | TGI (PC-3 prostate): > 100 µM | TGI (RPMI-8226 leukemia): > 100 µM | TGI (RXF 393 renal): > 100 µM | TGI (SF-268 CNS): > 100 µM | TGI (SF-295 CNS): > 100 µM | TGI (SF-539 CNS): > 100 µM | TGI (SK-MEL-2 melanoma): > 100 µM | TGI (SK-MEL-28 melanoma): > 100 µM | TGI (SK-MEL-5 melanoma): > 100 µM | TGI (SK-OV-3 ovarian): > 100 µM | TGI (SN12C renal): > 100 µM | TGI (SNB-19 CNS): > 100 µM | TGI (SNB-75 CNS): > 100 µM | TGI (SR leukemia): > 100 µM | TGI (SW-620 colon): > 100 µM | TGI (T-47D breast): > 100 µM | TGI (TK-10 renal): > 100 µM | TGI (U251 CNS): > 100 µM | TGI (UACC-257 melanoma): > 100 µM | TGI (UACC-62 melanoma): > 100 µM | TGI (UO-31 renal): > 100 µM

c1cc(CSSCc2ccncc2)ccn1
TGI (786-0 renal): > 100 µM | TGI (A498 renal): > 100 µM | TGI (A549 NSCLC): > 100 µM | TGI (ACHN renal): > 100 µM | TGI (BT-549 breast): > 100 µM | TGI (CAKI-1 renal): > 100 µM | TGI (CCRF-CEM leukemia): 24.2 µM | TGI (COLO 205 colon): 49.2 µM | TGI (DU-145 prostate): > 66.4 µM | TGI (EKVX NSCLC): > 100 µM | TGI (HCC-2998 colon): 58.7 µM | TGI (HCT-116 colon): > 100 µM | TGI (HCT-15 colon): > 100 µM | TGI (HL-60(TB) leukemia): 42.4 µM | TGI (HOP-62 NSCLC): > 100 µM | TGI (HOP-92 NSCLC): > 100 µM | TGI (HS 578T breast): 76 µM | TGI (HT29 colon): > 100 µM | TGI (IGROV1 ovarian): > 100 µM | TGI (K-562 leukemia): > 100 µM | TGI (KM12 colon): > 100 µM | TGI (LOX IMVI melanoma): > 100 µM | TGI (M14 melanoma): > 82.6 µM | TGI (MALME-3M melanoma): > 100 µM | TGI (MCF7 breast): > 100 µM | TGI (MDA-MB-231 breast): > 100 µM | TGI (MDA-MB-435): > 68.3 µM | TGI (MDA-N): 62.9 µM | TGI (MOLT-4 leukemia): 23.7 µM | TGI (NCI-H226 lung): > 85.5 µM | TGI (NCI-H23 lung): > 93.2 µM | TGI (NCI-H460 lung): > 84.9 µM | TGI (NCI-H522 lung): 60.2 µM | TGI (NCI/ADR-RES ovarian): > 85.3 µM | TGI (OVCAR-3 ovarian): > 100 µM | TGI (OVCAR-4 ovarian): > 100 µM | TGI (OVCAR-5 ovarian): > 100 µM | TGI (OVCAR-8 ovarian): > 100 µM | TGI (PC-3 prostate): > 100 µM | TGI (RPMI-8226 leukemia): > 65.3 µM | TGI (RXF 393 renal): > 75.7 µM | TGI (SF-268 CNS): > 94.3 µM | TGI (SF-295 CNS): > 100 µM | TGI (SF-539 CNS): 50.2 µM | TGI (SK-MEL-2 melanoma): 82.1 µM | TGI (SK-MEL-28 melanoma): > 100 µM | TGI (SK-MEL-5 melanoma): 56.6 µM | TGI (SK-OV-3 ovarian): > 100 µM | TGI (SN12C renal): > 100 µM | TGI (SNB-19 CNS): > 100 µM | TGI (SNB-75 CNS): > 100 µM | TGI (SR leukemia): 30.3 µM | TGI (SW-620 colon): > 100 µM | TGI (T-47D breast): > 100 µM | TGI (TK-10 renal): > 100 µM | TGI (U251 CNS): > 70.9 µM | TGI (UACC-257 melanoma): > 100 µM | TGI (UACC-62 melanoma): > 100 µM | TGI (UO-31 renal): > 100 µM

N#CC1(Nc2ccc(-c3ccc(NC4(C#N)CCCC4)cc3)cc2)CCCC1
TGI (786-0 renal): > 100 µM | TGI (A498 renal): > 100 µM | TGI (A549 NSCLC): > 100 µM | TGI (ACHN renal): > 100 µM | TGI (BT-549 breast): > 100 µM | TGI (CAKI-1 renal): > 100 µM | TGI (CCRF-CEM leukemia): 61.2 µM | TGI (COLO 205 colon): > 100 µM | TGI (DU-145 prostate): > 100 µM | TGI (EKVX NSCLC): > 100 µM | TGI (HCC-2998 colon): > 100 µM | TGI (HCT-116 colon): > 100 µM | TGI (HCT-15 colon): > 100 µM | TGI (HL-60(TB) leukemia): > 100 µM | TGI (HOP-62 NSCLC): > 100 µM | TGI (HOP-92 NSCLC): > 100 µM | TGI (HS 578T breast): > 100 µM | TGI (HT29 colon): > 100 µM | TGI (IGROV1 ovarian): > 100 µM | TGI (K-562 leukemia): > 100 µM | TGI (KM12 colon): > 100 µM | TGI (LOX IMVI melanoma): > 100 µM | TGI (M14 melanoma): > 100 µM | TGI (MALME-3M melanoma): > 100 µM | TGI (MCF7 breast): > 100 µM | TGI (MDA-MB-231 breast): > 100 µM | TGI (MDA-MB-435): > 100 µM | TGI (MDA-N): > 100 µM | TGI (MOLT-4 leukemia): > 100 µM | TGI (NCI-H226 lung): > 100 µM | TGI (NCI-H23 lung): > 100 µM | TGI (NCI-H460 lung): > 100 µM | TGI (NCI-H522 lung): > 100 µM | TGI (NCI/ADR-RES ovarian): > 100 µM | TGI (OVCAR-3 ovarian): > 100 µM | TGI (OVCAR-4 ovarian): > 100 µM | TGI (OVCAR-5 ovarian): > 100 µM | TGI (OVCAR-8 ovarian): > 100 µM | TGI (PC-3 prostate): > 100 µM | TGI (RPMI-8226 leukemia): > 100 µM | TGI (RXF 393 renal): > 100 µM | TGI (SF-268 CNS): > 100 µM | TGI (SF-295 CNS): > 100 µM | TGI (SF-539 CNS): 78.2 µM | TGI (SK-MEL-2 melanoma): > 100 µM | TGI (SK-MEL-28 melanoma): > 100 µM | TGI (SK-MEL-5 melanoma): > 100 µM | TGI (SK-OV-3 ovarian): > 100 µM | TGI (SN12C renal): > 100 µM | TGI (SNB-19 CNS): > 100 µM | TGI (SNB-75 CNS): > 100 µM | TGI (SR leukemia): > 100 µM | TGI (SW-620 colon): > 100 µM | TGI (T-47D breast): > 100 µM | TGI (TK-10 renal): > 100 µM | TGI (U251 CNS): > 100 µM | TGI (UACC-257 melanoma): > 100 µM | TGI (UACC-62 melanoma): > 100 µM | TGI (UO-31 renal): > 100 µM
